Test results taken from patent US20230165980A1, “METHODS FOR RADIOLABELING PSMA BINDING LIGANDS AND THEIR KITS” (Novartis AG, priority 2020, published 2023).

Assay: API assay stability of the freeze dried kit (external calibration curve)
Type: physicochemical
Conditions: final formulation kit
Experimental: Stability tests were performed on the freeze dried product containing the final formulation. […] Kits manufactured with the final formulation, indeed, were stored at different stability conditions (2-8° C.; 25° C. and 40° C.) and were tested at different time points for API-assay, Radiochemical Purity and Radiochemical Stability of the radiolabelled product. Radiochemical Purity and Stability were assessed only eluting IRE Generator which represented the most stressful condition in terms of Radioactive Concentration (Volumic Activity).

API quantitation, 1. injection (3 months at 2-8° C.): 28.87 µg
API quantitation, 2. injection (3 months at 2-8° C.): 29.21 µg
API quantitation, 3. injection (3 months at 2-8° C.): 28.44 µg
API quantitation, Average (3 months at 2-8° C.): 28.84 µg
API quantitation, 1. injection (3 months at 25° C.): 28.19 µg
API quantitation, 2. injection (3 months at 25° C.): 29.57 µg
API quantitation, 3. injection (3 months at 25° C.): 28.33 µg
API quantitation, Average (3 months at 25° C.): 28.70 µg
API quantitation, 1. injection (3 months at 40° C.): 28.17 µg
API quantitation, 2. injection (3 months at 40° C.): 28.05 µg
API quantitation, 3. injection (3 months at 40° C.): 28.06 µg
API quantitation, Average (3 months at 40° C.): 28.10 µg
API quantitation, 1. injection (6 months at 2-8° C.): 29.79 µg
API quantitation, 2. injection (6 months at 2-8° C.): 29.61 µg
API quantitation, 3. injection (6 months at 2-8° C.): 29.43 µg
API quantitation, Average (6 months at 2-8° C.): 29.61 µg
API quantitation, 1. injection (6 months at 25° C.): 29.35 µg
API quantitation, 2. injection (6 months at 25° C.): 29.31 µg
API quantitation, 3. injection (6 months at 25° C.): 29.06 µg
API quantitation, Average (6 months at 25° C.): 29.24 µg
API quantitation, 1. injection (6 months at 40° C.): 28.81 µg
API quantitation, 2. injection (6 months at 40° C.): 28.87 µg
API quantitation, 3. injection (6 months at 40° C.): 28.98 µg
API quantitation, Average (6 months at 40° C.): 28.89 µg
API quantitation, 1. injection (Release (Manufacturing date)): 28.31 µg
API quantitation, 2. injection (Release (Manufacturing date)): 28.76 µg
API quantitation, 3. injection (Release (Manufacturing date)): 27.40 µg
API quantitation, Average (Release (Manufacturing date)): 28.15 µg
SMILES: O=C(O)CCc1ccc(O)c(CN(CCN(CC(=O)O)Cc2cc(CCC(=O)NCCCCCC(=O)NCCCC[C@H](NC(=O)N[C@@H](CCC(=O)O)C(=O)O)C(=O)O)ccc2O)CC(=O)O)c1 [PSMA-11]
